The source of these data is the NIST ThermoML archive (doi:10.1016/j.jct.2010.12.014).

The nature of data set [1]: refractive index (Na D-line) (dimensionless). Particulars: 298.15 K; 101.33 kPa; Liquid; Standard Abbe refractometry.
For data set [2] the following is noted: 298.15 K; 101.33 kPa; Liquid; Vibrating tube method.
A short description of data set [3]: xn = mol fraction of the nth substance listed. The conditions noted are these: 298.15 K, 101 kPa, Liquid, Vibrating tube method.

SMILES strings stand for the structures. Where “and” joins values, the source holds several entries; their conditions need not be identical. Identical values can stand only once. ± gives the expanded uncertainty stated by the source.

By refractive index is commonly meant a measure of how strongly the sample bends light. The term mass density denotes mass per unit of volume. Take `CCOS(=O)(=O)[O-].CCn1cc[n+](C)c1` [1-ethyl-3-methylimidazolium ethyl sulfate]: the refractive index in data set [1] is on record as 1.4791 ± 0.00037. In data set [2], the mass density amounted to 1237.23 ± 0.43 kg/m3.

For `CCOS(=O)(=O)[O-].CCn1cc[n+](C)c1` [1-ethyl-3-methylimidazolium ethyl sulfate] + C1CCCCC1, the mass density in data set [3] (x2 = 0.027) came to 1230.94 ± 0.41 kg/m3.

For the molecule `CCOS(=O)(=O)[O-].CCn1cc[n+](C)c1` [1-ethyl-3-methylimidazolium ethyl sulfate] + CC1CCCCC1, in data set [3] (x2 = 0.026), the mass density stood at 1232.26 ± 0.42 kg/m3.

On to `CCOS(=O)(=O)[O-].CCn1cc[n+](C)c1` [1-ethyl-3-methylimidazolium ethyl sulfate] + CCc1ccccc1, for which the mass density in data set [3] (x2 = 0.124) is 1210.43 ± 0.35 kg/m3 and 1210.4 ± 0.35 kg/m3.

On to `C1CCCCC1` [cyclohexane], for which, in data set [1], the refractive index was determined as 1.4236 ± 0.00031. Also, in data set [2], the mass density stood at 773.8 ± 0.13 kg/m3.

Turning to `C1CCCCCCC1` [cyclooctane], in data set [1], the refractive index is recorded as 1.45598 ± 0.00037. For the same molecule, the mass density in data set [2] is given as 831.47 ± 0.24 kg/m3.

Take `C1CCCCCCC1` [cyclooctane] + CCOS(=O)(=O)[O-].CCn1cc[n+](C)c1: in data set [3] (x1 = 0.012), the mass density is 1232.65 ± 0.42 kg/m3.

Turning to `CCc1ccccc1` [ethylbenzene], the refractive index in data set [1] turned out to be 1.49304 ± 0.00031. The mass density in data set [2] came to 862.51 ± 0.11 kg/m3.

Regarding `CC1CCCCC1` [methylcyclohexane], in data set [1], the refractive index turned out to be 1.42062 ± 0.00031. Also, in data set [2], the mass density came out at 765.02 ± 0.13 kg/m3.
